SMILES strings stand for the structures. Where two headings read alike, the source gives them in different places.

The target of assay [1] is T1, human CTPS1 (Homo sapiens, UniProt P17812).
T1 construct: purchased Proteros biostructures GmbH
T1 sequence (P17812 1-591): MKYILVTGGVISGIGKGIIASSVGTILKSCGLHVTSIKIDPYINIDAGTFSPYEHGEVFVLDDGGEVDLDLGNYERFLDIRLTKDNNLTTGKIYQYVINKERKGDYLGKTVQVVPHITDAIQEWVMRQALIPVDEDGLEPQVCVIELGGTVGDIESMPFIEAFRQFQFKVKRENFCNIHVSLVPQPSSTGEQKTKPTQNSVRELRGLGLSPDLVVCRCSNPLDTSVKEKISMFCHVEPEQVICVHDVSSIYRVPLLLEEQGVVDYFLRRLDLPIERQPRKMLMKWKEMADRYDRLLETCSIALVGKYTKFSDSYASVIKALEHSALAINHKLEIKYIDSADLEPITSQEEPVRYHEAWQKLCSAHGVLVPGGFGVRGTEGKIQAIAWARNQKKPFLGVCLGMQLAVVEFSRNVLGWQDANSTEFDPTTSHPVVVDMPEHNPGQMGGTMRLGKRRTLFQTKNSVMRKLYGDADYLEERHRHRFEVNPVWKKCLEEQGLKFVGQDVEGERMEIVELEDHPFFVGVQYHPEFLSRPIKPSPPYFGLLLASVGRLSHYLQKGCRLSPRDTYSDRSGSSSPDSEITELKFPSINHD
As to the kind of experiment: Human CTPS1 enzyme inhibition (ADP-Glo Max assay). The class given is biochemical. As for the experimental part:
The enzyme inhibitory activities of compounds invented against the target of interest were determined using the ADP-Glo™ Max assay (Promega, UK). Assays for human CTPS1 were performed in 1× assay buffer containing 50 mM Tris, 10 mM MgCl2, 0.01% Tween-20, pH to 8.0 accordingly. Finally, immediately before use, L-cysteine was added to the 1× assay buffer to a final concentration of 2 mM. All reagents are from Sigma-Aldrich unless specified otherwise. Human full length active C-terminal FLAG-Hiss-tag CTPS1 (UniProtKB—P17812, CTPS[1-591]-[…]) was obtained from Proteros biostructures GmbH.
3× human CTPS1 protein was prepared in 1× assay buffer to the final working protein concentration required for the reaction. A 2 uL volume per well of 3× human CTPS1 protein was mixed with 2 uL per well of 3× test compound (compound prepared in 1× assay buffer to an appropriate final 3× compound concentration respective to the concentration response curve designed for the compounds under test) for 10 minutes at 25° C. The enzymatic reaction was then initiated by addition of a 2 uL per well volume of a pre-mixed substrate mix (UltraPure ATP from ADP-Glo™ Max kit (0.31 mM), GTP (0.034 mM), UTP (0.48 mM) and L-glutamine (0.186 mM)) and the mixture was incubated for an appropriate amount of time within the determined linear phase of the reaction at 25° C. under sealed plate conditions with constant agitation at 500 revolutions per minute (rpm). ADP-Glo™ Max reagent was added for 60 minutes (6 μL per well) and subsequently ADP-Glo™ Max development reagent was added for 60 minutes (12 uL per well) prior to signal detection in a microplate reader (EnVision® Multilabel Reader, Perkin Elmer). Following each reagent addition over the course of the assay, assay plates were pulse centrifuged for 30 seconds at 500 rpm.
In all cases, the enzyme converts ATP to ADP and the ADP-Glo™ Max reagent subsequently depletes any remaining endogenous ATP in the reaction system. The ADP-Glo™ Max detection reagent converts the ADP that has been enzymatically produced back into ATP and using ATP as a substrate together with luciferin for the enzyme luciferase, light is generated which produces a detectable luminescence. […] The percentage inhibition produced by each concentration of compound was calculated using the equation shown below: […]
(§1) Percentage inhibition was then plotted against compound concentration, and the 50% inhibitory concentration (IC50) was determined from the resultant concentration-response curve.
For orientation: ADP-Glo turns the ADP formed in a reaction into a luminescent signal.

In assay [2] the test system is human CTPS1 versus CTPS2. As to the kind of experiment: Human CTPS1 versus CTPS2 selectivity assessment by RapidFire/MS analysis. Type of assay: biochemical. The note with it: RapidFire/MS IC50 ratio. As for the experimental part: Human CTPS1 versus CTPS2 Selectivity Assessment by RapidFire/MS Analysis.
The enzyme inhibitory activities against each target isoform of interest may be determined for the compounds of the invention using an optimised RapidFire high-throughput mass spectrometry (RF/MS) assay format. RF/MS assays for both human CTPS1 and CTPS2 may be performed in assay buffer consisting of 50 mM HEPES (Merck), 20 mM MgCl2, 5 mM KCl, 1 mM DTT, 0.01% Tween-20, pH to 8.0 accordingly. Human full-length active C-terminal FLAG-His-tag CTPS1 (UniProtKB—P17812, CTPS[1-591]-[…]) may be obtained from Proteros biostructures GmbH. Human full length active C-terminal FLAG-His-Avi tagged CTPS2 (UniProtKB-Q9NRF8, CTPS2 [1-586]-[…]) may be obtained from Harker Bio.
Human CTPS (1 or 2) protein may be prepared in 1× assay buffer to the final working protein concentration required for the reaction. A 2 uL volume per well of 2×CTPS (1 or 2) protein may be mixed with 40 nL of compound using acoustic (ECHO) delivery and incubated for 10 minutes at 25° C. Each isoform enzymatic reaction may be subsequently initiated by addition of 2 uL per well of a 2× substrate mix in assay buffer. For hCTPS1: ATP (0.3 mM), UTP (0.2 mM), GTP (0.07 mM) and L-glutamine (0.1 mM). For hCTPS2: ATP (0.1 mM), UTP (0.04 mM), GTP (0.03 mM) and L-glutamine (0.1 mM). Each mixture may be incubated for an appropriate amount of time per isoform within the determined linear phase of the reaction at 25′C. A 60 uL volume of stop solution (1% formic acid with 0.5 uM ^13C9-^15N3-CTP in H2O) may be added and the plate immediately heat-sealed and centrifuged for 10 minutes at 4,000 rpm. Following centrifugation, plates may be loaded onto the Agilent RapidFire microfluidic solid phase extraction system coupled to an API4000 triple quadrupole mass spectrometer (RF/MS) for analysis.
In all cases, the enzyme converts UTP to CTP. Highly specific and sensitive multiple reaction monitoring (MRM) MS methods may be optimised for the detection of the enzymatic reaction product, CTP, and the stable isotope labelled product standard ^13C9-^15N3-CTP. Readout for data analysis may be calculated as the ratio between the peak area of the product CTP and the internal standard ^13C9-^15N3-CTP. For data reporting, the following equation may be used: […]
For each screening plate, the means of the negative (DMSO) and positive control values were used for the calculation of the respective assay window (S/B) and Z′ values. The median of the respective control values was used for calculation of percent inhibition according to the following equation: […]
as §1
Fold selectivity between CTPS1 and CTPS2 was subsequently calculated according to the following equation: […]

Setting [3] is: Table 25, compounds wherein R1 is C1-5fluoroalkyl, read-out: CTPS1 (Human CTPS1 Enzyme Inhibition data grouped by potency range).

Take `CC(C)Oc1cncc(-c2ccc(NC(=O)C(C)(C)c3ccnc(NS(=O)(=O)C4CC4)n3)nc2)n1` [Example P9]: the IC50 in assay [1] (Table 23, read-out: CTPS1 (Human CTPS1 Enzyme Inhibition data grouped by potency range)) was not above 100 nM. Also, in assay [2] (Table 26), the “Selectivity (fold selectivity between CTPS1 and CTPS2)” value is reported as “+++ (>60 fold (+++))”.
`CCOc1cncc(-c2ccc(NC(=O)C3(c4ccnc(NS(=O)(=O)N(C)C)n4)CCOCC3)nc2)n1` [Example P248]: the IC50 in assay [1] (Table 24, read-out: CTPS1 (Human CTPS1 Enzyme Inhibition data grouped by potency range)) is 100 to 1000 nM. The “Selectivity (fold selectivity between CTPS1 and CTPS2)” value in assay [2] (Table 27) is listed as “+++ (>60 fold (+++))”.
In the case of `CCOc1cncc(-c2ccc(NC(=O)C3(c4ccnc(NS(=O)(=O)CC(F)F)n4)CCOCC3)nc2)n1` [Example P271, 4-(2-((2,2-difluoroethyl)sulfonamido)pyrimidin-4-yl)-N-(5-(6-ethoxypyrazin-2-yl)pyridin-2-yl)tetrahydro-2H-pyran-4-carboxamide], the IC50 in assay [1] (setting [3]) is not above 100 nM.
Consider `CCOc1cncc(-c2ccc(NC(=O)C(F)(CC)c3ccnc(NS(=O)(=O)CC(F)F)n3)nc2)n1` (stereo not drawn) [Example P284, 2-(2-((2,2-difluoroethyl)sulfonamido)pyrimidin-4-yl)-N-(5-(6-ethoxypyrazin-2-yl)pyridin-2-yl)-2-fluorobutanamide], for which the IC50 in assay [1] (setting [3]) is not above 100 nM.

For the origin of these results see US20230020663A1, “SULFONAMIDE INHIBITORS AS CTPS1 INHIBITORS” (Step Pharma S.A.S., priority 2019, published 2023).
